Measured values from publication PMC7215935, “GM1 Oligosaccharide Crosses the Human Blood–Brain Barrier In Vitro by a Paracellular Route” (International Journal of Molecular Sciences, 2020).
Where two headings read alike, the source gives them in different places.

Legend:
hBLECs = assay: Metabolic integrity of OligoGM1 after hBLEC transport (HPTLC autoradiography); type: in vitro ADME, human; settings: basolateral compartment, detection limit 15 dpm
Source text: Since OligoGM1 is tritium labeled at position 6 of the external galactose, any possible galactosidase activity present on the plasma membrane of hBLECs can result in external galactose removal, leading to loss of radioactivity from the penta-saccharide. Radiolabeled galactose may pass the BBB or may enter into the cells and be recycled for the biosynthesis of new glycans, so that the radioactivity found may correspond to the galactose or to any possible new glycan rather than to the original oligosaccharide.
Thus, to test the integrity of the OligoGM1 molecule after hBLEC crossing, OligoGM1 solution was prepared in RH buffer at a final concentration of 100 μM plus 1 × 10^6 dpm of tritium-labeled OligoGM1. For the apical–basolateral transport experiment, the hBLEC insert’s apical side was filled with 0.5 mL of the drug solution and placed on 1.5 mL RH buffer-filled well of a 12-well plate. After 60 min, the solution of the receiving compartment (about 1.5 mL) was collected and 200 μL were combined with 5 mL of ULTIMA GOLD liquid (PerkinElmer), shaken, and counted for 20 min by a liquid scintillation analyzer (TRI-CARB 2100TR, Packard).
To verify that the counted radioactivity indeed corresponded to [^3H]OligoGM1, 0.5 mL of receiving compartment solution was lyophilized and suspended in 0.5 mL of methanol. […]

P-gp/BCRP = assay: ABC transporter competition assay (Caco-2 pump out), R123 efflux; settings: Caco-2 cells, 10, 50 and 100 μM, vs control
Experimental: (§8) Briefly, Caco-2 cells in 96-well plates were washed once with RH buffer and incubated for 120 min with 10 µM R123 or for 15 min with 0.5 µM CMFDA. R123 and CMFD are substrates for the major efflux pumps expressed by BBB and intestine cells, i.e., P-gp/BCRP and MRPs, respectively. After the incubation period, Caco-2 cells were washed twice with RH buffer with or without test compounds (OligoGM1 at 10, 50, and 100 µM). The rate out (Kout) of Caco-2 cells for fluorescent dyes was monitored by fluorescence measurement (λex = 501 nm and λem = 538 nm for R123; λex = 485 nm and λem = 538 nm for CMFDA) using a microplate fluorescent reader (BioTek, H1, Vermont, Winooski). The amount of dye expelled from the cells was measured at 37 °C and every 5 min for one hour for R123 and every 2 min for 30 min for CMFDA. The rate out of the dye from cells was calculated as the slope of the curve of the cumulative amount of dye against the time (Kout = ∆pmol⁄∆t) and compared with the value in the presence of test compounds.

[1] = Direct transport (apical to basolateral, A → B) across the hBLEC monolayer: Pe and Papp; type: in vitro ADME, human; settings: human, pH 7.4, 50 μM
Experimental: (§1) Prior to the experiments, in order to verify the hBLECs’ monolayer integrity and stability, the permeability parameters were verified as previously reported. Briefly, 1.5 mL Ringer–Hepes solution (RH) (150 mM NaCl, 5.2 mM KCl, 2.2 mM CaCl2, 0.2 mM MgCl26H2O, 6 mM NaHCO3, 5 mM HEPES, pH: 7.4) was added to empty wells of a 12-well plate. Filter insert containing confluent monolayers of hBLECs or not (control) were subsequently placed in the 12-well plate, filled with 0.5 mL RH buffer containing the fluorescent integrity marker LY (50 μM), and then placed on an orbital shaker (150 rpm, Heidolph Titramax 100) at 37 °C in a humidify atmosphere of 95% air/5% CO2. Every 20 min for 1 h, filter inserts were withdrawn from the receiver compartment and placed in the next one. To verify the quantity of LY, at the end of the experiments, aliquots from the donor solution were taken at the end of the experiments and the fluorescence was quantified using a quantification curve of LY as referee. At least three inserts with cells and three without cells were tested in each permeability measurement. The fluorescence was measured using a luminescence spectrometer (LS 50B, Perkin Elmer), using the following excitation/emission wavelength (nm) settings: 432/538. Pe parameters were calculated according to the formulas shown in the Supplementary Information (Equations (7)–(10)). In parallel, as positive control for breakdown of hBLECs, D-mannitol, was used at a concentration of 1.4 M. At this concentration, mannitol induces an osmotic shock, and thus an increase in paracellular permeability.
(§2) Transport experiments were carried out by adding tritium-labeled GM1 or OligoGM1 (1 × 10^6 dpm) to cold GM1 or OligoGM1, respectively, at different concentrations, as specified below.
(§3) To identify and quantify the GM1 or OligoGM1 molecules in every transport experiment, aliquots from apical A (5 μL) and basolateral B (200 μL) compartments were collected at indicated time points and combined with 5 mL of ULTIMA GOLD liquid (PerkinElmer), shaken, and counted for 20 min by liquid scintillation analyzer (TRI-CARB 2100TR, Packard). Resulting radioactivity measures were used to estimate the quantity of the molecules. Experiments were performed on an agitation plate at 37 °C (150 rpm, Heidolph Titramax 100) in a humidify atmosphere of 95% air/5% CO2. At least three inserts with cells were tested in each transport experiment for each condition.
(§4) To examine flux from apical to basolateral compartments (A → B), 1.5 mL RH buffer was added to empty wells of a 12-well plate. Following this, the hBLEC filter was placed in the same 12-well plate and filled with 0.5 mL RH buffer containing 1 × 10^6 dpm of tritiated [^3H]GM1 or [^3H]OligoGM1 plus 50 μM of cold GM1 or OligoGM1 (Figure S3b).
(§5) To establish the time dependence of the transport experiments, hBLEC inserts filled with OligoGM1 were transferred into a new receiver well plate filled with fresh RH buffer every 20 min up to 240 min. The hBLECs’ properties, integrity, and stability were maintained up to 240 min in the transport experiments with RH buffer in the upper and basolateral side (see [28] and Figure S4).
(§6) To establish the dose dependence in the transport experiments, 1 × 10^6 dpm of tritiated [^3H]OligoGM1 plus 5, 10, 50, 100, and 300 μM OligoGM1 solutions were prepared and employed as described above. The hBLECs inserts were transferred into a new RH-filled receiver well plate every 20 min up to 60 min. […]
(§7) To evaluate the possible active transport involvement, the transport of OligoGM1 from apical to basolateral (A → B) compartments was performed at 4 °C, with the aim of inhibiting the active transport mechanism at low temperature. […]

[2] = test system: human brain-like endothelial cells (hBLECs); assay: as above; type: in vitro ADME
Experimental: as §1, §2, §3, §4, §5, §6, §7

MRPs = assay: ABC transporter competition assay (Caco-2 pump out), CMFDA efflux; settings: Caco-2 cells, 10, 50 and 100 μM, vs control
Experimental: as §8

metabolic stability after hBLEC crossing (hBLECs): not metabolized by hBLECs
Papp A→B at 60 min, 50 μM ([1]; 60 min, 4 °C (Figure 6d), read-out: Papp A>B at 4 °C): 6.7 ± 0.17 ×10⁻⁶ cm/s
Papp A→B at 60 min, 50 μM ([1]; 60 min, 37 °C, temperature experiment (Figure 6d), read-out: Papp A>B at 37 °C): 8.8 ± 0.24 ×10⁻⁶ cm/s
Papp A→B at 60 min, 50 μM ([1]; after 60 min, hBLEC monolayer, read-out: endothelial permeability Pe (A → B) (converted)): 9.67 ×10⁻⁶ cm/s
influence of BSA on rate of A → B transport ([2]; 50 μM, 0.1% (w/v) BSA in apical solution, 60 min): No difference in the rate of transport
slope of linear regression: % of administered nmol in receiving compartment vs time (min) ([2]; 50 μM, 20-240 min, y = slope × x): 0.1097
crossing rate / Pe of OligoGM1 relative to GM1 ([2]; 50 μM, hBLECs): 20 fold
time dependence of A → B transport ([2]; 50 μM, up to 240 min): linear time dependence
slope of linear regression: nmol in receiving compartment vs concentration (μM) ([2]; 5-300 μM, 60 min, y = slope × x): 0.04352
concentration dependence of A → B transport ([2]; 5 to 300 μM, 60 min): proportional increase
Compound: CC(=O)NC1C(O)CC(OC2C(O)C(OC3C(CO)OC(O)C(O)C3O)OC(CO)C2OC2OC(CO)C(O)C(OC3OC(CO)C(O)C(O)C3O)C2NC(C)=O)(C(=O)O)OC1C(O)C(O)CO (stereo not drawn) [OligoGM1, β-Gal-(1-3)-β-GalNAc-(1-4)-[α-Neu5Ac-(2-3)]-β-Gal-(1-4)-β-Glc]
effect on efflux (Kout) of R123 (P-gp/BCRP): did not identify any difference
effect on efflux (Kout) of CMFDA (MRPs): did not identify any difference
